According to patent US7230033B2, “Pest control compositions and methods for their use” (United States of America as represented by the Secretary of …, priority 2000, dated 2007):

Tests used:
[1] = system: ticks, fleas, and mosquitoes; assay: Pesticidal activity against all three arthropods, general statements (Examples 9, 17); format: in vivo; settings: 24 hours exposure; initial screenings
Experimental: Concentrations of the compounds were prepared by 2-fold serial dilutions of a 0.5% (wt:vol) solution of the extracts in acetone (see, e.g., Panella et al., J. Med. Entomol., 42(3):352-358, 2005). The approximate toxicity of individual compounds and compounds in combination was determined with a total of 8 doses ranging from 0.002% to 0.25%. […] A control treated with acetone only was run with each series. Tick and flea susceptibility was evaluated using a modification of the disposable pipette method of Barnard et al. (J. Econ. Entomol., 74:466–69, 1981) and Maupin and Piesman (J. Med. Entomol., 31:319–321, 1994).
Briefly, groups of 10 nymphal I. scapularis and X. cheopis fleas were used in all tests (more than a total of 5,240 nymphs and 4,860 fleas were exposed to the compounds). The inner surface of 2-dram friction cap vials were treated with the compound/acetone solution, or acetone only as a control, and left to air-dry overnight (see also, Panella et al., J. Med. Entomol., 42(3):352-358, 2005. Three to 4 holes were made in the plastic cap to allow for air exchange. Nymphal ticks and adult fleas were then placed directly into the vials using forceps. Vials containing ticks or fleas were placed in desiccators for 24 h at 21° C. and 90% RH. Morbidity and mortality was recorded at 1, 2, 4, 8, and 24 h after initial exposure.
Adult mosquitoes were tested using the bottle bioassay method of Brogden and McAllister (J. Am. Mosq. Control Assoc., 14:159–64, 1998) with minor modifications. Natural product extracts were two-fold serially diluted for a total of 8 concentrations ranging from 0.002% to 0.25% in 1.5 ml of acetone. Individual dilutions were added to 250 ml Wheaton glass bottles and capped. Bottles were manipulated to evenly coat all inner surfaces. The caps were removed and bottles were allowed to air-dry overnight. […] Morbidity and mortality were recorded at 15, 30, 45, and 60 min and 24 hour intervals. […] The dose-mortality data was evaluated with probit analysis, using the LdP Line software, to determine LC50 and LC90 values.

I. scapularis nymphs = assay: Tick bioassay, treated 2-dram vials, probit analysis; format: in vivo, Ixodes scapularis; settings: 24 h exposure; for LC50 / LC90: NE = not effective at concentrations tested; for Slope: probit
Description: A control treated with acetone only was run with each series.
For each time point, if ticks and fleas were incapable of movement, maintaining normal posture, leg coordination, ability to right themselves, or any signs of life, they were considered moribund or dead.

[2] = system: ticks, fleas and mosquitoes; assay: Example 2 bioassay, qualitative comparison on ticks, fleas and mosquitoes (Examples 4, 6); format: in vivo
Experimental: (§1) Samples of the compounds listed below were obtained as described in Example 1, and screened for biocidal activities against nymphal Ixodes scapularis. In this example, 2% acetone solutions (wt/vol) of the compounds were applied to inner surfaces of 2-dram friction cap vials. Vials and caps were treated then allowed to dry for a minimum of 4 hours before placing 10 nymphs in each container. These same vials were used to challenge additional nymphs and adult I. scapularis ticks and adult Xenopsylla cheopis fleas through five weeks to observe any possible residual activity.
Nootkatol was tested using the bioassay presented in Example 2.
Two nootkatone samples were compared to nootkatone isolated from Alaska yellow cedar using the method presented in Example 1. The first sample was a natural extract of nootkatone taken from grapefruit oil purchased commercially. The second sample was a synthetically produced nootkatone purchased commercially.
Both samples were compared to the nootkatone originating from Alaska yellow cedar in terms of their biocidal activities. Using a bioassay method similar to that presented in Example 2, no qualitative differences were discernible among the nootkatone samples in terms of their biocidal effect on ticks, fleas and mosquitoes.

X. cheopis adults = assay: Flea bioassay, treated 2-dram vials, probit analysis; format: in vivo, Xenopsylla cheopis; settings: 24 h exposure
Experimental: Med. […] A control treated with acetone only was run with each series. Tick and flea susceptibility was evaluated using a modification of the disposable pipette method of Barnard et al. (J. Econ. Entomol., 74:466-69, 1981) and Maupin and […]. Med. […] The inner surface of 2-dram friction cap vials were treated with the compound/acetone solution, or acetone only as a control, and left to air-dry overnight (see also, […] et al., J. Med. […] Three to 4 holes were made in the plastic cap to allow for air exchange. Nymphal ticks and adult fleas were then placed directly into the vials using forceps. […] For each time point, if ticks and fleas were incapable of movement, maintaining normal posture, leg coordination, ability to right themselves, or any signs of life, they were considered moribund or dead.

[3] = system: Ixodes scapularis nymphal ticks; assay: Tick repellency bioassay; format: in vivo; settings: combinations 1:1 by weight
Description: One-hundred (100) μl of test compound was pipetted onto a cotton-tipped applicator mounted to the bottom center of a 1 dram glass shell vial using non-toxic modeling clay. A total of 8 concentrations were screened with doses ranging from 0.04–5.0%. Applicators treated with acetone only served as controls. A line was drawn around the perimeter of the vial immediate to the base of the treated cotton portion of the applicator. The area above the line was designated the “repellent zone”. The vial was allowed to air-dry 1 h before a single tick was introduced. Vials were covered with a single piece of mesh and fitted with a hollowed-out plastic cap to cover the opening of the vial; this prevented the tick from escaping but allowed for air exchange. Vials were breathed upon by investigators at 1 min intervals and a hand was placed over the test vials to provide stimuli for ticks to pass into the repellent zone. […] If the tick crossed over and remained in the “repellent zone” for ≧5 sec, the tick was deemed non-repelled by the test compound. Each test was replicated 10 times using a new tick for each test. Repellent activity was determined at 1, 2, 3, and 4 h after treatment. Probit analysis was used to determine repellent efficacy (RD50 and RD95).

Ae. aegypti adults = assay: Adult mosquito bottle bioassay; format: in vivo, Aedes aegypti; settings: 24 h exposure; for Slope: probit
Experimental: Adult mosquitoes were tested using the bottle bioassay method of Brogden and McAllister (J. Am. Mosq. Control Assoc., 14:159–64, 1998) with minor modifications. Natural product extracts were two-fold serially diluted for a total of 8 concentrations ranging from 0.002% to 0.25% in 1.5 ml of acetone. Individual dilutions were added to 250 ml Wheaton glass bottles and capped. Bottles were manipulated to evenly coat all inner surfaces. The caps were removed and bottles were allowed to air-dry overnight. Once bottles were completely dry, 10–50 (in some tests 25–50) adult mosquitoes were aspirated into the bottles. Mosquitoes were held in the bottles for 24 h at 23° C. and 85% RH. Morbidity and mortality were recorded at 15, 30, 45, and 60 min and 24 hour intervals. One bottle for each replicate was treated with acetone only and served as a control. The dose-mortality data was evaluated with probit analysis, using the LdP Line software, to determine LC50 and LC90 values.
Carvacrol was combined with compound 7, 9, or 10 at a 1:1 ratio (7.5 μl of carvacrol:7.5 μl of compound 7, 9, or 10 was added to 2,985 μl of acetone for a 0.5% solution, from which serial dilutions were made), and tested as previously described against nymphal ticks and adult and larval mosquitoes.

[4] = system: ticks, fleas, formicids and termites; assay: Persistence of biocidal activity in vials treated with 2% solutions (Example 5); format: in vivo; settings: at 11 weeks
Experimental: as §1
Persistence of biocidal activity was determined for nootkatone and valencene-11,12-epoxide by using the vials as treated with the 2% solutions of Example 2. This bioassay employed groups of ticks, fleas, formicids and termites using a method similar to that described in Example 2. […] At 11 weeks, the biocidal activity began to dissipate below the 100% mortality level.

[5] = NE = not effective at concentrations tested

SMILES	pesticidal activity [1]	LC50 (I. scapularis nymphs)	LC90 (I. scapularis nymphs)	Slope (I. scapularis nymphs)	Slope (Ae. aegypti adults)	further results
CC1=CCC2C(C1)C2(C)C (stereo not shown) [Compound 1, 3-Carene]	no pesticidal activity	–	–	–	–	–
CC1=CCC(O)(C(C)C)CC1 (stereo not shown) [Compound 2, Terpinen-4-ol]	no pesticidal activity	–	–	–	–	–
COc1cc(C(C)C)ccc1C [Compound 3, Methyl carvacrol]	no pesticidal activity	–	–	–	–	–
C=C(C)[C@@H]1CCC2=C[C@@H](O)C[C@@H](C)[C@]2(C)C1 [Compound 12, Nootkatol]	–	0.023 percent concentration, wt:vol	0.059 percent concentration, wt:vol	3.069	3.201	biocidal activity compared with nootkatene [2]: essentially equivalent to the activity of nootkatene; LC50 (X. cheopis adults; [5]): 0.024 percent concentration, wt:vol; Slope (X. cheopis adults; probit): 2.101; RD50 ([3]; 1 hr): 0.047 % (w/v); RD50 ([3]; 4 hr): 0.320 % (w/v); LC50 (Ae. aegypti adults; [5]): 0.004 percent concentration, wt:vol; LC90 (Ae. aegypti adults; [5]): 0.01 percent concentration, wt:vol
C[C@@H]1CCC=C2CCC(C3(C)CO3)C[C@]21C (stereo partly shown) [Compound 13, valencene-11,12-epoxide]	–	21.219 percent concentration, wt:vol	3713.114 percent concentration, wt:vol	0.571	1.581	mortality level [4]: < 100%
